Data set [1] in a line: Cytotoxicity against MDCK cells after 48 hrs by MTT assay. It counts as cell-based, Canis lupus familiaris. The conditions noted are these: dog. (In general: Tetrazolium dyes change colour on reduction, which living cells bring about.)
The subject of data set [2] is Influenza A virus. Description: Antiviral activity against amantadine/oseltamivir-susceptible Influenza A virus (A/mallard/Netherlands/12/00(H7N3)) infected in MDCK cells assessed as inhibition of viral replication after 48 hrs by hemagglutination test. It counts as functional, organism-based, Influenza A virus (A/mallard/Netherlands/12/2000(H7N3)).
The nature of data set [3]: Selectivity index, ratio of CC50 for MDCK cells to IC50 for amantadine/oseltamivir-susceptible Influenza A virus (A/mallard/Netherlands/12/00(H7N3)). It is filed as toxicity. The settings on record: dog, read-out: Ratio CC50/IC50.
Data set [4] deals with Influenza A virus. Briefly: Antiviral activity against amantadine/oseltamivir-susceptible Influenza A virus (A/Singapore/1/57(H2N2)) infected in MDCK cells assessed as inhibition of viral replication after 48 hrs by hemagglutination test. It counts as functional, organism-based, Influenza A virus (A/Singapore/1/1957(H2N2)).
Data set [5] in a line: Selectivity index, ratio of CC50 for MDCK cells to IC50 for amantadine/oseltamivir-susceptible Influenza A virus (A/Singapore/1/57(H2N2)). It counts as toxicity. The conditions noted are these: dog, read-out: Ratio CC50/IC50.
The test system of data set [6] is Influenza A virus. Briefly: Antiviral activity against Influenza A virus (A/Puerto Rico/8/34(H1N1)) infected in MDCK cells assessed as inhibition of viral replication at 500 uM up to 2 hrs post-infection by hemagglutination test. It is filed as functional, organism-based. The settings on record: A/Puerto Rico/8/1934(H1N1).
Data set [7] concerns Influenza A virus. Briefly: Antiviral activity against amantadine/oseltamivir-susceptible Influenza A virus (A/mallard/Pennsylvania/10218/84(H5N2)) infected in MDCK cells assessed as inhibition of viral replication after 48 hrs by hemagglutination test. It is filed as functional, organism-based, Influenza A virus (A/mallard/Pennsylvania/10218/1984(H5N2)).
A short description of data set [8]: Selectivity index, ratio of CC50 for MDCK cells to IC50 for amantadine/oseltamivir-susceptible Influenza A virus (A/Aichi/2/68(H3N2)). The settings on record: dog, read-out: Ratio CC50/IC50. It is filed as toxicity.
Data set [9] is described as follows: Selectivity index, ratio of CC50 for MDCK cells to IC50 for amantadine/oseltamivir-susceptible Influenza A virus (A/mallard/Pennsylvania/10218/84(H5N2)). It is filed as toxicity. The settings on record: dog, read-out: Ratio CC50/IC50.
Another data set has as its system H3N2 subtype. Briefly: Antiviral activity against amantadine/oseltamivir-susceptible Influenza A virus (A/Aichi/2/68(H3N2)) infected in MDCK cells assessed as inhibition of viral replication after 48 hrs by hemagglutination test. It is filed as functional, organism-based. The conditions noted are these: A/Aichi/2/1968(H3N2).

Structures are written as SMILES. Calls of active or inactive are those of the source. The rule behind the calls is not given here.

For `C[C@@H]1CC[C@@H]2[C@H](C1)OC1(CCCCCC1)C[C@@]2(C)O`, it took 210 µM to reach half-maximal cytotoxicity in data set [1] (CC50 at 48 h). Compound `CC(N)C12CC3CC(CC(C3)C1)C2` (configuration not stated) [RIMANTADINE] showed a CC50 at 48 h in [1] of 319 µM. Compound `CCC1(CC)C[C@@](C)(O)[C@@H]2CC[C@@H](C)C[C@@H]2O1` had a half-maximal cytotoxic concentration (CC50) at 48 h in data set [1] of 188 µM. `C[C@@H]1CC[C@@H]2[C@H](C1)OC1(CCCCC1)C[C@@]2(C)O` yielded a CC50 at 48 h in [1] of 627 µM. In data set [1], `CCCC1(CCC)C[C@@](C)(O)[C@@H]2CC[C@@H](C)C[C@@H]2O1` returned a CC50 at 48 h of 131 µM. `C[C@@H]1CC[C@@H]2[C@@H](C1)OC(C)(C)C[C@]2(C)O`: in data set [1], the CC50 at 48 h amounted to 816 µM. Turning to `C[C@@H]1CC[C@@H]2[C@H](C1)OC1(CCCC1)C[C@@]2(C)O`, in data set [1], the CC50 at 48 h worked out at 810 µM. For `C[C@@H]1CC[C@@H]2[C@@H](C1)OC(C)(C)C[C@@]2(C)O`, the IC50 with Influenza A virus [2] was 613 µM; in the data set with Influenza A virus [4], 0.9 µM; in the data set with Influenza A virus [7] it was 160 µM; in the data set on H3N2 subtype it was over 1420 µM. The selectivity ratio in data set [3] is 2; in data set [5], 1570; in data set [8], 1; in data set [9], 9. In addition, the inhibition entry in the data set with Influenza A virus [6] is “Active”. This compound also yielded a CC50 at 48 h in data set [1] of over 1420 µM.

`C[C@@H]1CC[C@@H]2[C@@H](C1)O[C@@H](C1CCCCC1)C[C@@]2(C)O` gave a CC50 at 48 h in data set [1] of 24.2 µM. For `C[C@@H]1CC[C@@H]2[C@H](C1)OC1(CCCCCCC1)C[C@@]2(C)O`, in data set [1], the CC50 at 48 h worked out at 379 µM. Compound `NC(=O)c1ncn([C@@H]2O[C@H](CO)[C@@H](O)[C@H]2O)n1` [RIBAVIRIN] showed a CC50 at 48 h in [1] of over 2130 µM. Same read-out and setting: to `C[C@@H]1CC[C@@H]2[C@H](C1)OC(C)(C)CC2(C)O` (some centres not stated) belongs 72.2 µM; to `CCC[C@H]1C[C@@](C)(O)[C@@H]2CC[C@@H](C)C[C@H]2O1`, over 1330 µM.

The CC50 is the concentration at which the toxic effect on the cells reaches its halfway point. A high value points to better tolerance by the cells. As a reminder, the IC50 is the concentration that inhibits the measured activity by half.

The values are drawn from ChEMBL document CHEMBL4118151, “Highly potent activity of isopulegol-derived substituted octahydro-2H-chromen-4-ols against influenza A and B viruses” (Bioorg Med Chem Lett, 2018).
